Assay results from patent publication US20150126609A1, “PHARMACEUTICAL COMPOSITION COMPRISING 11-DEOXY -PROSTAGLANDIN COMPOUND AND METHOD FOR STABILIZING THE COMPOUND” (R-TECH UENO, LTD., priority 2007, published 2015).

What was measured:
[1] = Stability of Compound 1 in soft gelatin capsules (sugar alcohol plasticizer) on storage, amount determined by HPLC; assay type: physicochemical
Experimental: Sugar alcohol solution derived from corn starch 60 parts by weight was added in an appropriate amount of water, stirred and heated. Then, gelatin 100 parts by weight was added thereto to give gelatin solution. Compound 1 was dissolved in medium chain fatty acid triglyceride (USP/NF grade) to give a liquid mixture containing 120 μg/g of compound 1. The gelatin solution and the liquid mixture were loaded on a soft capsule forming and filling machine to give capsule containing the liquid mixture, and dried to give soft gelatin capsule with an appropriate hardness.
The soft gelatin capsules obtained in the formulation example were kept at 40° C. for 6 months or at 55° C. for one month. After that, 20 capsules were swelled with purified water and ethyl acetate (HPLC grade) 10 ml was added thereto. The capsule was then cut opened and the liquid contained therein was obtained. 1 ml of the internal standard solution per 100 μg of theoretical amount of compound 1 was added to the liquid, and ethyl acetate (HPLC grade) was added so that the theoretical concentration of compound 1 was 10 μg/mL to give a sample solution.
On the other hand, about 0.025 g of standard Compound 1 was precisely weighted and added with ethyl acetate (HPLC grade) to give exactly 100 mL solution. 2 mL of the solution was measured, exactly 5 mL of the internal standard solution was added thereto and ethyl acetate (HPLC grade) was added so that the total amount was 50 mL to give the standard compound 1 solution.
The fluorescent labeling agent was added to the sample and standard solutions, stirred and reacted at room temperature.
The respective solution in an amount that theoretically gives 3.6 ng of compound 1 was loaded on the column and analyzed under the condition as follows: HPLC analysis condition:
(§1) Column: 5 mm×25 cm stainless steel column packed with octadecylsilane treated silica gel for HPLC (5 μm)
Mobile phase: mixture of acetonitrile HPLC grade: methanol HPLC grade: ammonium acetate (0.05 mol/L)
(§2) Detector: spectrophotofluorometer
The amount of the compound 1 in the sample solution was determined by using a one point calibration curve.

[2] = Stability of Compound 1 in vehicle stored at 55° C., amount determined by HPLC; assay type: physicochemical; details: for day 10, percentage based on the theoretical amount (250 μg/g): stored at 55° C.
Experimental: Compound 1 was dissolved in a vehicle shown in table 1 below to give 250 μg/g solution. Then, the solution was put in a hard grass container and heated at 55° C. The precise amount of Compound 1 in the solution was determined by means of HPLC (day 0). The container was kept at 55° C. for 10 days and after that the precise amount of the compound 1 was determined by means of HPLC (day 10).
The determination of the amount of the compound was carried out as follows. About 0.2 g of the sample was mixed with exactly 2 mL of internal standard solution and then with a dissolving agent shown in Table 1 to give 5 ml of sample solution. About 5 mg of the reference standard compound 1 was weighted precisely and added with acetonitrile to give exactly 50 mL solution. Exactly 1 ml of the solution was obtained and added with exactly 4 mL of the internal standard solution, and then added with the dissolving agent to give 10 mL of reference solution.
The fluorescent labeling agent was added to the respective solution, stirred and stood at room temperature for more than 30 minutes. After that, 2% acetic acid in acetonitrile was added to the solution, stirred and reacted at room temperature for more 30 minutes to give the sample and standard solutions. Then, the respective solution in an amount that theoretically gives 3.6 ng of compound 1 was loaded on the column and analyzed under the condition as follows:
as §1
Mobile phase: mixture of acetonitrile (HPLC grade) and perchlorate buffer
as §2
According to the same manner as described in Example 1, stability of the compound 1 in various vehicles was measured.

With `CCCCC(F)(F)C(=O)CCC1CCC(=O)C1CCCCCCC(=O)O` (stereo not shown) [Compound 1, 11-deoxy-13,14-dihydro-15-keto-16,16-difluoro PGE1] the “amounts of compound 1 (% vs day 0), Initial” value ([1]; soft gelatin capsule, gelatin 100 / sugar alcohol solution 60, 120 μg/g in medium chain fatty acid triglyceride, 40° C.) was 100 % vs day 0, the “amounts of compound 1 (% vs day 0), Initial” value ([1]; soft gelatin capsule, gelatin 100 / sugar alcohol solution 60, 120 μg/g in medium chain fatty acid triglyceride, 55° C.) was 100 % vs day 0 and the “amounts of compound 1 (% vs day 0), 1 mo” value ([1]; soft gelatin capsule, gelatin 100 / sugar alcohol solution 60, 120 μg/g in medium chain fatty acid triglyceride, stored at 40° C., 1 mo) was 99.8 % vs day 0. The “amounts of compound 1 (% vs day 0), 3 mo” value ([1]; soft gelatin capsule, gelatin 100 / sugar alcohol solution 60, 120 μg/g in medium chain fatty acid triglyceride, stored at 40° C., 3 mo) was 98.0 % vs day 0, the “amounts of compound 1 (% vs day 0), 6 mo” value ([1]; soft gelatin capsule, gelatin 100 / sugar alcohol solution 60, 120 μg/g in medium chain fatty acid triglyceride, stored at 40° C., 6 mo) was 98.8 % vs day 0 and the “amounts of compound 1 (% vs day 0), 1 w” value ([1]; soft gelatin capsule, gelatin 100 / sugar alcohol solution 60, 120 μg/g in medium chain fatty acid triglyceride, stored at 55° C., 1 w) was 100.2 % vs day 0. The “amounts of compound 1 (% vs day 0), 2 w” value ([1]; soft gelatin capsule, gelatin 100 / sugar alcohol solution 60, 120 μg/g in medium chain fatty acid triglyceride, stored at 55° C., 2 w) was 100.1 % vs day 0, the “amounts of compound 1 (% vs day 0), 4 w” value ([1]; soft gelatin capsule, gelatin 100 / sugar alcohol solution 60, 120 μg/g in medium chain fatty acid triglyceride, stored at 55° C., 4 w) was 99.5 % vs day 0 and the “effect of sugar alcohol solution/polyol on stability when used as plasticizer” value ([1]; sugar alcohol solution/polyol used as plasticizer of soft gelatin capsule shell) was “will not affect the stability”. For the same compound, the “stability on admixing with a fatty acid ester” value ([2]; admixed with a fatty acid ester such as glyceride, 55° C., 10 days) was “significantly improved”, the “stability in polyol, sugar, sugar alcohol, polyethylene glycol, polysorbate 80 and fatty acid” value ([2]; in polyol such as glycerine, sugar, sugar alcohol, polyethylene glycol, polysorbate 80, and fatty acid, 55° C., 10 days) was “poor” and the “day 0, percentage based on the theoretical amount (250 μg/g)” value (shortened to “day 0, percentage based”) ([2]; no vehicle (compound 1 only), 55° C.) was 95.4%. For the same compound, the “day 10, percentage based on the theoretical amount (250 μg/g)” value (shortened to “day 10, percentage based”) ([2]; no vehicle (compound 1 only)) was 82.8%, the “day 0, percentage based” value ([2]; vehicle Macrogol 400 (polyethyleneglycol), 55° C.) was 92.2% and the “day 10, percentage based” value ([2]; vehicle Macrogol 400 (polyethyleneglycol)) was 80.7%. For the same compound, the “day 0, percentage based” value ([2]; vehicle concentrated glycerin, 55° C.) was 20.9%, the “day 10, percentage based” value ([2]; vehicle concentrated glycerin) was 20.0% and the “day 0, percentage based” value ([2]; vehicle corn oil, 250 μg/g solution, 55° C.) was 93.1%. For the same compound, the “day 10, percentage based” value ([2]; vehicle corn oil, 250 μg/g solution) was 94.8%, the “day 0, percentage based” value ([2]; vehicle glycerine fatty acid ester (Inwitor 742), 250 μg/g solution, 55° C.) was 93.3% and the “day 10, percentage based” value ([2]; vehicle glycerine fatty acid ester (Inwitor 742), 250 μg/g solution) was 96.4%. The “day 0, percentage based” value ([2]; vehicle hydrogenated maltose starch syrup, 55° C.) was 5.1%, the “day 10, percentage based” value ([2]; vehicle hydrogenated maltose starch syrup) was 3.5% and the “day 0, percentage based” value ([2]; vehicle isopropyl palmitate, 250 μg/g solution, 55° C.) was 93.9%. The “day 10, percentage based” value ([2]; vehicle isopropyl palmitate, 250 μg/g solution) was 96.7%, the “day 0, percentage based” value ([2]; vehicle medium chain fatty acid triglyceride (Miglyol 812N), 250 μg/g solution, 55° C.) was 94.1% and the “day 10, percentage based” value ([2]; vehicle medium chain fatty acid triglyceride (Miglyol 812N), 250 μg/g solution) was 97.0%. The “day 0, percentage based” value ([2]; vehicle oleic acid, 55° C.) was 61.9%, the “day 10, percentage based” value ([2]; vehicle oleic acid) was 51.6% and the “day 0, percentage based” value ([2]; vehicle polysorbate 80, 55° C.) was 92.1%. The “day 10, percentage based” value ([2]; vehicle polysorbate 80) was 64.5%, the “day 0, percentage based” value ([2]; vehicle propyleneglycol fatty acid ester (Rikemal PO-100V), 250 μg/g solution, 55° C.) was 93.9% and the “day 10, percentage based” value ([2]; vehicle propyleneglycol fatty acid ester (Rikemal PO-100V), 250 μg/g solution) was 92.1%. The “day 0, percentage based” value ([2]; vehicle soy oil, 250 μg/g solution, 55° C.) was 98.2%, the “day 10, percentage based” value ([2]; vehicle soy oil, 250 μg/g solution) was 94.6% and the “day 0, percentage based” value ([2]; vehicle sugar alcohol solution derived from corn starch, 55° C.) was 3.8%. The “day 10, percentage based” value ([2]; vehicle sugar alcohol solution derived from corn starch) was 5.6%.
